Assay results reported in US20190381086A1, “INHIBITION OF NEDDYLATION USING GLYCYL-tRNA SYNTHETASE INHIBITORS” (The Scripps Research Institute, priority 2015, published 2019).

Legend:
KM12 = experiment: NCI 60 Cell One-Dose Screen; format: cell-based, human; conditions: KM12, Colon Cancer; single dose 10^-5 M
MOLT-4 = experiment: NCI 60 Cell One-Dose Screen; format: cell-based, human; conditions: MOLT-4, Leukemia; single dose 10^-5 M
MDA-MB-231/ATCC [1] = experiment: NCI 60 Cell One-Dose Screen; format: cell-based, human; conditions: Breast Cancer, single dose 10^-5 M
NCI-H460 [2] = experiment: NCI 60 Cell One-Dose Screen; format: cell-based, human; conditions: NCI-H460, Non-Small Cell Lung Cancer; single dose 10^-5 M
CAKI-1 = experiment: NCI 60 Cell One-Dose Screen; format: cell-based, human; conditions: CAKI-1, Renal Cancer; single dose 10^-5 M
NCI-H23 = experiment: NCI 60 Cell One-Dose Screen; format: cell-based, human; conditions: NCI-H23, Non-Small Cell Lung Cancer; single dose 10^-5 M
HT29 [3] = experiment: NCI 60 Cell One-Dose Screen; format: cell-based, human; conditions: HT29, Colon Cancer; single dose 10^-5 M
MCF7 = experiment: NCI 60 Cell One-Dose Screen; format: cell-based, human; conditions: MCF7, Breast Cancer; single dose 10^-5 M
PC-3 [4] = experiment: NCI 60 Cell One-Dose Screen; format: cell-based, human; conditions: PC-3, Prostate Cancer; single dose 10^-5 M
IGROV1 = experiment: NCI 60 Cell One-Dose Screen; format: cell-based, human; conditions: IGROV1, Ovarian Cancer; single dose 10^-5 M
BT-549 = experiment: NCI 60 Cell One-Dose Screen; format: cell-based, human; conditions: BT-549, Breast Cancer; single dose 10^-5 M
COLO 205 = experiment: NCI 60 Cell One-Dose Screen; format: cell-based, human; conditions: COLO 205, Colon Cancer; single dose 10^-5 M
SF-268 = format: cell-based; conditions: SF-268, CNS Cancer
OVCAR-5 = format: cell-based; conditions: OVCAR-5, Ovarian Cancer
SR = format: cell-based; conditions: Leukemia
OVCAR-4 = format: cell-based; conditions: OVCAR-4, Ovarian Cancer
OVCAR-8 = format: cell-based; conditions: OVCAR-8, Ovarian Cancer
MDA-MB-231/ATCC [5] = format: cell-based; conditions: Breast Cancer
HT29 [6] = format: cell-based; conditions: HT29, Colon Cancer
HCT-116 = format: cell-based; conditions: HCT-116, Colon Cancer
NCI-H460 [7] = format: cell-based; conditions: NCI-H460, Non-Small Cell Lung Cancer
RPMI-8226 = format: cell-based; conditions: RPMI-8226, Leukemia
HCT-15 = format: cell-based; conditions: HCT-15, Colon Cancer
CCRF-CEM = format: cell-based; conditions: Leukemia
K-562 = format: cell-based; conditions: K-562, Leukemia
SW-620 = format: cell-based; conditions: SW-620, Colon Cancer
PC-3 [8] = format: cell-based; conditions: PC-3, Prostate Cancer
U251 = format: cell-based; conditions: U251, CNS Cancer
SNB-75 = format: cell-based; conditions: SNB-75, CNS Cancer
NCI-H522 = format: cell-based; conditions: NCI-H522, Non-Small Cell Lung Cancer
M14 = format: cell-based; conditions: M14, Melanoma
SK-MEL-5 = format: cell-based; conditions: SK-MEL-5, Melanoma
[9] = Homo sapiens, read-out: LC50 (the source's name)

What does the source list for NCC(=O)NS(=O)(=O)OC[C@H]1O[C@@H](n2cnc3c(N)ncnc32)[C@H](O)[C@@H]1O [GlySA, glycylsulfamoyladenosine]?
Growth inhibition count (%) (KM12): 0.7347%; Growth inhibition count (%) (MOLT-4): 1.146%; Growth inhibition count (%) (MDA-MB-231/ATCC [1]): 2.608%; Growth inhibition count (%) (NCI-H460 [2]): 3.35%; Growth inhibition count (%) (CAKI-1): 5.11%; Growth inhibition count (%) (NCI-H23): 5.695%; Growth inhibition count (%) (HT29 [3]): 6.002%; Growth inhibition count (%) (MCF7): 8.271%; Growth inhibition count (%) (PC-3 [4]): 9.662%; Growth inhibition count (%) (IGROV1): 11.7%; Growth inhibition count (%) (BT-549): 21.06%; Growth inhibition count (%) (COLO 205): 48.51%; GI50 (SF-268; Homo sapiens): 0.501 µM; LC50/GI50 (SF-268): >199.5; GI50 (OVCAR-5; Homo sapiens): 0.741 µM; CC50 (OVCAR-5; [9]): > 100 µM; LC50/GI50 (OVCAR-5): >134.9; GI50 (SR; Homo sapiens): 0.933 µM; CC50 (SR; [9]): > 100 µM; LC50/GI50 (SR): >107.2; GI50 (OVCAR-4; Homo sapiens): 0.389 µM; CC50 (OVCAR-4; [9]): 24 µM; LC50/GI50 (OVCAR-4): 61.7; GI50 (OVCAR-8; Homo sapiens): 2.46 µM; CC50 (OVCAR-8; [9]): > 100 µM; LC50/GI50 (OVCAR-8): >40.7; LC50/GI50 (MDA-MB-231/ATCC [5]): 34.7; GI50 (MDA-MB-231/ATCC [5]; Homo sapiens): 0.525 µM; CC50 (MDA-MB-231/ATCC [5]; [9]): 18.2 µM; LC50/GI50 (HT29 [6]): >33.9; GI50 (HT29 [6]; Homo sapiens, HT-29): 2.95 µM; CC50 (HT29 [6]; Homo sapiens, HT-29, read-out: LC50 (the source's name)): > 100 µM; LC50/GI50 (HCT-116): >31.6; GI50 (HCT-116; Homo sapiens): 3.16 µM; CC50 (HCT-116; [9]): > 100 µM; GI50 (NCI-H460 [7]; Homo sapiens): 3.24 µM; CC50 (NCI-H460 [7]; [9]): > 100 µM; LC50/GI50 (NCI-H460 [7]): >30.9; GI50 (RPMI-8226; Homo sapiens): 3.31 µM; CC50 (RPMI-8226; [9]): > 100 µM; LC50/GI50 (RPMI-8226): >30.2; LC50/GI50 (HCT-15): 27.5; GI50 (HCT-15; Homo sapiens): 2.95 µM; CC50 (HCT-15; [9]): 81.3 µM; GI50 (CCRF-CEM; Homo sapiens): 3.71 µM; LC50/GI50 (CCRF-CEM): >26.9; GI50 (K-562; Homo sapiens, K562): 3.71 µM; LC50/GI50 (K-562): >26.9; GI50 (SW-620; Homo sapiens): 3.71 µM; CC50 (SW-620; [9]): > 100 µM; LC50/GI50 (SW-620): >26.9; GI50 (PC-3 [8]; Homo sapiens): 2.63 µM; CC50 (PC-3 [8]; [9]): 56.2 µM; LC50/GI50 (PC-3 [8]): 21.4; GI50 (U251; Homo sapiens, U-251): 0.55 µM; CC50 (U251; Homo sapiens, U-251, read-out: LC50 (the source's name)): 5.75 µM; LC50/GI50 (U251): 10.5; GI50 (SNB-75; Homo sapiens): 1.15 µM; CC50 (SNB-75; [9]): 9.55 µM; LC50/GI50 (SNB-75): 8.3; GI50 (NCI-H522; Homo sapiens): 1.74 µM; CC50 (NCI-H522; [9]): 8.51 µM; LC50/GI50 (NCI-H522): 4.9; GI50 (M14; Homo sapiens): 1.82 µM; CC50 (M14; [9]): 7.24 µM; LC50/GI50 (M14): 4.0; GI50 (SK-MEL-5; Homo sapiens): 1.86 µM; LC50/GI50 (SK-MEL-5): 3.2
